How the values were obtained:
Type in all cases: in vivo, human
subjects with MDD [1] = assay: ASEX sexual functioning score
Excerpt: As used herein, the term “decrease in sexual functioning” refers to reducing or lessening of one or more components of the human sex drive, i.e., sexual functioning. In some embodiments, the sexual functioning comprises one or more of sexual drive, sexual arousal, vaginal lubrication, erection, orgasm achievement, or orgasm satisfaction. In other embodiments, the sexual functioning comprises sexual drive. In further embodiments, the sexual functioning comprises vaginal lubrication satisfaction. In further embodiments, the sexual functioning comprises orgasm achievement. In yet other embodiments, the sexual functioning comprises orgasm satisfaction. Desirably, the patient's sexual functioning is assessed at the time of initial administration of the crystalline Form I of aticaprant, crystalline Form II of aticaprant, crystalline Form III of aticaprant, or amorphous aticaprant. Thus, the patient's sexual functioning while taking crystalline Form I of aticaprant, crystalline Form II of aticaprant, crystalline Form III of aticaprant, or amorphous aticaprant can be compared to the patient's sexual functioning before administration of crystalline Form I of aticaprant, crystalline Form II of aticaprant, crystalline Form III of aticaprant, or amorphous aticaprant. Sexual functioning may be assessed by using standard scales and techniques such as the Arizona Sexual Experience Scale (ASEX). The ASEX is used to investigate whether crystalline Form I of aticaprant, crystalline Form II of aticaprant, crystalline Form III of aticaprant, or amorphous aticaprant has a further positive or negative effect on sexual function. The ASEX is 5 item rating scale administered to patients that quantifies sexual drive, sexual arousal, vaginal lubrication or penile erection, ability to reach orgasm and satisfaction. Scores range from 5 to 30, and two different versions of the scale are available (males and females).
Patients had their sexual functioning measured using a standard, well accepted rating scale: ASEX. See, Table 68.

[2] = Body weight by treatment group
Excerpt: Treatment with crystalline Form I of aticaprant, crystalline Form II of aticaprant, crystalline Form III of aticaprant, or amorphous aticaprant as described herein has several advantages over the treatments in the art. […] As used herein, the term “weight gain” refers to an increase in the weight of patient, relative to the weight of the patient before taking crystalline Form I of aticaprant, crystalline Form II of aticaprant, crystalline Form III of aticaprant, or amorphous aticaprant or the weight of the patient that is assessed at the time of the initial administration of the crystalline Form I of aticaprant, crystalline Form II of aticaprant, crystalline Form III of aticaprant, or amorphous aticaprant. In certain embodiments, the patient may actually see a decrease in overall weight, relative to the weight of the patient before taking crystalline Form I of aticaprant, crystalline Form II of aticaprant, crystalline Form III of aticaprant, or amorphous aticaprant.
At the lead-in baseline timepoint, the mean weight for subjects in the placebo group was 76.17 kg compared to 78.66 in the aticaprant group. After 6 weeks in the double-blind treatment phase, the mean weight in the placebo group was 75.75 kg compared to 78.57 kg in the aticaprant group. […] This is unexpected because other adjunctive treatments for MDD result in a mean weight increase. See, Thase M, et al. J Clin Psych. 2015: 76 (9), 1224-1231; Thase, J Clin Psych. 2015, 76 (9): 1232-1240; El Khalili, Int J Neuropsychopharmacol. 2010, 13, 917-932; Marcus, J. Clin. Psychopharmacol. […] Nashville, Tenn, ACNP, 2008; Earley, American College of Neuropsychopharmacology, 2007, Annual Meeting Abstracts (Boca Raton, Fla, Dec. 9-13, 2007). Nashville, TN, ACNP, 2007). See, Table 65.

subjects with MDD [3] = assay: HAM-A6 total score (anxiety), same study; conditions: Treatment Week 6
Excerpt: The secondary objectives are: • i. […] To investigate the effect of aticaprant versus placebo on depression related anhedonia as assessed by the SHAPS. • iv. To investigate the effect of aticaprant on symptoms of depression using the Clinical Global Impression-Severity (CGI-S), the patient reported Symptoms of Major Depressive Disorder Scale (SMDDS) and the self-assessment of treatment experience (SATE). • V. To investigate the effect of aticaprant on symptoms of anxiety using the HAM-A and on core symptoms of anxiety using the HAM-A6 subscale. • vi. To assess the plasma PK of aticaprant in subjects with MDD and explore its relationship with efficacy and safety parameters.
• (i) Depression: Montgomery-Åsberg Depression Rating Scale (MADRS), Clinical Global Impression-Severity (CGI-S), Symptoms of Major Depressive Disorder Scale (SMDDS), and Self-assessment of treatment experience (SATE) • (ii) Anhedonia: Snaith-Hamilton Pleasure Scale (SHAPS) • (iii) Anxiety: Structured Interview Guide for the Hamilton Anxiety scale (SIGH-A) and HAM-A6 • (iv) Effects on Cognition: The Cognitive and Physical Functioning Questionnaire (CPFQ) • (v) Safety assessments

subjects with MDD [4] = assay: Treatment-emergent adverse events, full safety analysis set
[5] = Treatment Period, Full Safety Analysis Set, aticaprant 10 mg (N = 85)

In the case of Cc1cc(C)cc(C2CCCN2Cc2ccc(Oc3ccc(C(N)=O)cc3F)cc2)c1 (stereo not drawn) [aticaprant, 3-fluoro-4-4-2-(3,5-dimethylphenyl) pyrrolidin-1-yl-methylphenoxybenzamide], the “sexual functioning (in words)” value (subjects with MDD [1]; ASEX) is reported as “notable improvements”, the ASEX score (subjects with MDD [1]; Baseline, n = 85) is reported as 21.26 and the “ASEX total score: mean change from treatment baseline (SD)” value (subjects with MDD [1]; to week 6, lower score indicates improvement) is reported as −1.5 (4.02) points. For the same compound, the “Mean weight, mean (SE)” value ([2]; Lead-in Baseline, n = 85) was 78.66 (1.65) kg, the “Mean weight, mean (SE)” value ([2]; Screening, n = 85) was 78.42 (1.65) kg and the “Mean weight, mean (SE)” value ([2]; Withdrawal Baseline (after 6 weeks double-blind treatment), n = 85) was 78.57 (1.71) kg. The “Mean weight Relative % Change” value ([2]; Withdrawal vs Lead-in, n = 85) was −0.11%, the mean weight ([2]; after 6 weeks in the double-blind treatment phase, lead-in baseline 78.66) was 78.57 kg and the “weight over the 6-week double blind treatment period (in words)” value ([2]; in vivo) was “remained relatively stable”. The “Mean weight Absolute Change (Withdrawal-Lead-in)” value ([2]; n = 85) was -0.09 kg, the “HAM-A6 score, aticaprant treated patients vs. placebo (in words)” value (subjects with MDD [3]) was “greater improvement” and the “Change from Treatment Baseline in HAM-A6 Total Score: Arithmetic Mean (SD)” value (subjects with MDD [3]; aticaprant 10 mg, 59 subjects analyzed) was −2.73 ± 2.651 scores on a scale. For the same compound, the “Subjects with 1 or more serious TEAE” value (subjects with MDD [4]; [5]) was 0 n, the “Subjects with TEAE leading to death” value (subjects with MDD [4]; [5]) was 0 n and the “TEAE of Special Interest: Abdominal Pain Upper” value (subjects with MDD [4]; [5]) was 0 n. The “patients who experienced acute cholecystitis” value (subjects with MDD [4]; treatment period) was 0 patients, the “subjects who experienced TEAEs of special interest” value (subjects with MDD [4]; treatment period, 13/85) was 15.3% and the “subjects who discontinued due to treatment-emergent adverse events” value (subjects with MDD [4]; treatment period, due to diarrhea, nausea, vomiting and headache) was 1 subject. For the same compound, the “subjects with TEAE diarrhea” value (subjects with MDD [4]; treatment period, full safety analysis set, 7/85) was 8.2%, the “subjects with TEAE headache” value (subjects with MDD [4]; treatment period, full safety analysis set, 10/85) was 11.8% and the “subjects who experienced at least one TEAE” value (subjects with MDD [4]; treatment period, full safety analysis set, 40/85) was 47.1%.

From patent US12171743B2, “Forms of aticaprant” (Janssen Pharmaceuticals, Inc., priority 2022, dated 2024)
